{"source": "PubChem BioAssay AID330", "about": "(DTP/NCI, 2004)", "test_system": "P388 leukemia ip, CD2F1 mice, survival T/C", "test": "NCI In Vivo Anticancer Drug Screen. Data for tumor model P388 Leukemia (intraperitoneal) in CD2F1 (CDF1) mice", "details": "endpoint: median survival time, higher = longer survival", "outline": "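Mice carrying the transplanted tumor received test compound or vehicle. Survival was recorded in each group, and the value is the treated-group measurement divided by that of the vehicle-treated control group.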", "key": {"[1]": {"details": "dose: 50.0 mg/kg/injection, schedule: Q01DX009 (ip), vehicle: saline with Tween-80"}, "[2]": {"details": "dose: 100.0 mg/kg/injection, schedule: Q01DX009 (ip), vehicle: saline with Tween-80"}, "[3]": {"details": "dose: 200.0 mg/kg/injection, schedule: Q01DX009 (ip), vehicle: saline with Tween-80"}, "[4]": {"details": "dose: 60.0 mg/kg/injection, schedule: Q01DX005 (ip), vehicle: saline with Tween-80"}, "[5]": {"details": "dose: 120.0 mg/kg/injection, schedule: Q01DX005 (ip), vehicle: saline with Tween-80"}, "[6]": {"details": "dose: 240.0 mg/kg/injection, schedule: Q01DX005 (ip), vehicle: saline with Tween-80"}, "[7]": {"details": "dose: 100.0 mg/kg/injection, schedule: Q04DX003 (ip), vehicle: saline with Tween-80"}, "[8]": {"details": "dose: 200.0 mg/kg/injection, schedule: Q04DX003 (ip), vehicle: saline with Tween-80"}, "[9]": {"details": "dose: 400.0 mg/kg/injection, schedule: Q04DX003 (ip), vehicle: saline with Tween-80"}}, "note": "Values joined by “and” are separate entries in the source; they are usually repeats but may differ in a detail not shown here. Equal entries are not always repeated. Inconclusive results and toxic doses are left out."}
{"smiles": "COc1cc2c(c(OC)c1OC)-c1ccc(OC)c(=O)cc1[C@@H](NC(C)=O)CC2", "values": [{"measurement": "T/C", "setting": "dose: 0.02 mg/kg/injection, schedule: Q01DX009 (ip), vehicle: saline", "result": "117 % of control"}, {"measurement": "T/C", "setting": "dose: 0.06 mg/kg/injection, schedule: Q01DX009 (ip), vehicle: saline", "result": "119 % of control"}, {"measurement": "T/C", "setting": "dose: 0.08 mg/kg/injection, schedule: Q01DX009 (ip), vehicle: saline", "result": "150 % of control"}, {"measurement": "T/C", "setting": "dose: 0.13 mg/kg/injection, schedule: Q01DX005 (ip), vehicle: saline", "result": "120 % of control"}, {"measurement": "T/C", "setting": "dose: 0.16 mg/kg/injection, schedule: Q01DX009 (ip), vehicle: saline", "result": "156 % of control"}, {"measurement": "T/C", "setting": "dose: 0.32 mg/kg/injection, schedule: Q01DX009 (ip), vehicle: saline", "result": "186 % of control"}, {"measurement": "T/C", "setting": "dose: 0.37 mg/kg/injection, schedule: Q01DX010 (ip), vehicle: saline", "result": "168 % of control"}, {"measurement": "T/C", "setting": "dose: 0.4 mg/kg/injection, schedule: Q01DX009 (ip), vehicle: water", "result": "176 % of control"}, {"measurement": "T/C", "setting": "dose: 0.5 mg/kg/injection, schedule: Q01DX005 (ip), vehicle: saline", "result": "169 % of control"}, {"measurement": "T/C", "setting": "dose: 0.64 mg/kg/injection, schedule: Q01DX009 (ip), vehicle: saline", "result": "225 % of control"}, {"measurement": "T/C", "setting": "dose: 0.75 mg/kg/injection, schedule: Q01DX010 (ip), vehicle: saline", "result": "159 % of control"}, {"measurement": "T/C", "setting": "dose: 1.0 mg/kg/injection, schedule: Q01DX005 (ip), vehicle: saline", "result": "160 % of control and 197 % of control and 205 % of control"}, {"measurement": "T/C", "setting": "dose: 1.25 mg/kg/injection, schedule: Q01DX009 (ip), vehicle: saline", "result": "100 % of control (2×) and 281 % of control"}, {"measurement": "T/C", "setting": "dose: 2.0 mg/kg/injection, schedule: Q01DX005 (ip), vehicle: saline", "result": "175 % of control"}]}
{"smiles": "N#CCc1ccccc1C#N", "values": [{"measurement": "T/C", "setting": "dose: 12.5 mg/kg/injection, schedule: Q01DX005 (ip), vehicle: saline with Tween-80", "result": "100 % of control"}, {"measurement": "T/C", "setting": "dose: 25.0 mg/kg/injection, schedule: Q01DX005 (ip), vehicle: saline with Tween-80", "result": "99 % of control"}, {"measurement": "T/C", "setting": "dose: 50.0 mg/kg/injection, schedule: Q01DX005 (ip), vehicle: saline with Tween-80", "result": "101 % of control"}]}
{"smiles": "O=C1CC2C3Nc4ccccc4C3CCN2C2=C1CC(OC(=O)c1ccccc1)CC2", "note": "(stereo not given)", "values": [{"measurement": "T/C", "setting": "dose: 100.0 mg/kg/injection, schedule: Q04DX003 (ip), vehicle: saline sonified", "result": "100 % of control"}, {"measurement": "T/C", "setting": "dose: 200.0 mg/kg/injection, schedule: Q04DX003 (ip), vehicle: saline sonified", "result": "100 % of control"}, {"measurement": "T/C", "setting": "dose: 400.0 mg/kg/injection, schedule: Q04DX003 (ip), vehicle: saline sonified", "result": "95 % of control"}]}
{"smiles": "CS(=O)(=O)/C=C/c1ccccc1", "values": [{"measurement": "T/C", "setting": "[1]", "result": "103 % of control"}, {"measurement": "T/C", "setting": "[2]", "result": "90 % of control"}, {"measurement": "T/C", "setting": "[3]", "result": "90 % of control"}]}
{"smiles": "CCCCOS(=O)(=O)c1ccc([N+](C)(C)C)cc1", "values": [{"measurement": "T/C", "setting": "dose: 12.5 mg/kg/injection, schedule: Q01DX009 (ip), vehicle: Klucel (hydroxypropylcellulose) (HPC)", "result": "100 % of control"}, {"measurement": "T/C", "setting": "dose: 25.0 mg/kg/injection, schedule: Q01DX009 (ip), vehicle: Klucel (hydroxypropylcellulose) (HPC)", "result": "102 % of control"}, {"measurement": "T/C", "setting": "dose: 50.0 mg/kg/injection, schedule: Q01DX009 (ip), vehicle: Klucel (hydroxypropylcellulose) (HPC)", "result": "104 % of control"}]}
{"smiles": "CC(C)=CCc1cc(O)c(C)cc1O", "values": [{"measurement": "T/C", "setting": "dose: 12.5 mg/kg/injection, schedule: Q01DX009 (ip), vehicle: distilled water + Tween-80 + alcohol", "result": "99 % of control"}, {"measurement": "T/C", "setting": "dose: 25.0 mg/kg/injection, schedule: Q01DX009 (ip), vehicle: distilled water + Tween-80 + alcohol", "result": "91 % of control"}]}
{"smiles": "COc1cc(C2c3c(oc4ccccc4c3=O)Oc3oc4ccccc4c(=O)c32)cc(OC)c1O", "values": [{"measurement": "T/C", "setting": "dose: 15.0 mg/kg/injection, schedule: Q01DX005 (ip), vehicle: saline with Tween-80", "result": "92 % of control"}, {"measurement": "T/C", "setting": "dose: 30.0 mg/kg/injection, schedule: Q01DX005 (ip), vehicle: saline with Tween-80", "result": "96 % of control"}, {"measurement": "T/C", "setting": "[4]", "result": "92 % of control"}, {"measurement": "T/C", "setting": "[5]", "result": "95 % of control"}, {"measurement": "T/C", "setting": "[6]", "result": "98 % of control"}]}
{"smiles": "C(=C\\c1csnn1)/c1ccc(/C=C/c2csnn2)cc1", "values": [{"measurement": "T/C", "setting": "[4]", "result": "100 % of control"}, {"measurement": "T/C", "setting": "[5]", "result": "100 % of control"}, {"measurement": "T/C", "setting": "[6]", "result": "100 % of control"}]}
{"smiles": "CCCCCCC(=O)/C=C/C=C/c1ccccc1", "values": [{"measurement": "T/C", "setting": "[7]", "result": "100 % of control"}, {"measurement": "T/C", "setting": "[8]", "result": "103 % of control"}, {"measurement": "T/C", "setting": "[9]", "result": "92 % of control"}]}
{"smiles": "O=[N+]([O-])c1c(-c2ccccc2)csc1SSc1scc(-c2ccccc2)c1[N+](=O)[O-]", "values": [{"measurement": "T/C", "setting": "[7]", "result": "103 % of control"}, {"measurement": "T/C", "setting": "[8]", "result": "96 % of control"}, {"measurement": "T/C", "setting": "[9]", "result": "100 % of control"}]}
{"smiles": "CC(C)COC(CNC(=O)c1ccccc1)C(Cl)(Cl)Cl", "note": "(stereo not given)", "values": [{"measurement": "T/C", "setting": "[1]", "result": "100 % of control"}, {"measurement": "T/C", "setting": "[2]", "result": "100 % of control"}, {"measurement": "T/C", "setting": "[3]", "result": "110 % of control"}]}
